The text below walks through data of patent US20210371422A1, “MORPHINAN DERIVATIVE” (priority 2016, published 2021).

SMILES strings stand for the structures. Where a name gives a salt, the structure may show the parent alone. Read-outs that look alike come from different tables or passages of the source. Where only a bound is given, the exact number is not on record here.

The target of one data set is T1, human opioid μ receptor (Homo sapiens, UniProt P35372).
T1 construct: host or cells: CHO cells
T1 sequence (P35372 whole entry): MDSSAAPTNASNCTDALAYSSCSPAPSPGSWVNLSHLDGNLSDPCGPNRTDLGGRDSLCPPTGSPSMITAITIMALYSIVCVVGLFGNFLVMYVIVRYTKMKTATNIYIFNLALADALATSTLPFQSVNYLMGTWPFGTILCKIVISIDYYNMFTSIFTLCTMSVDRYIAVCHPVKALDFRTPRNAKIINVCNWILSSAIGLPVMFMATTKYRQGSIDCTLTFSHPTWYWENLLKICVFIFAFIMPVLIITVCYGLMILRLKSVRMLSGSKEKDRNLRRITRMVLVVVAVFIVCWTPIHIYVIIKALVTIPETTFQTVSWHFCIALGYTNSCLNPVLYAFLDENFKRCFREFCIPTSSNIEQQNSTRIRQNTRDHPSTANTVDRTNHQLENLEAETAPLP
Put plainly: Opioid receptor function test (Lance Ultra cAMP Kit), μ receptor. It counts as cell-based. Particulars: for EC50: CHO cells expressing human μ receptor, cAMP, N.C. = maximum reaction not reached at highest concentration (10 μM), not calculated, read-out: μ receptor EC° C. As to the method: (§1) Opioid Receptor Function Test
(§2) The functional activities of the compounds provided by the present invention on the μ, δ, and κ opioid receptors were investigated.
(§3) The test was performed by using Lance Ultra cAMP Kit (PerkinElmer) according to a method predetermined for the kit. In the evaluation of the agonistic activity, CHO cells expressing each of the human opioid receptors (δ, μ, and κ, accession numbers and catalog numbers are mentioned below) and 10 μM of each test compound were reacted for 30 minutes in an assay buffer (1×HESS, […], pH 7.4, […] (isobutylmethylxanthine), 7.5% BSA) in the presence of forskolin. Subsequently, the cAMP detection reagent included in the kit was added, and 1 hour afterward, time-resolved fluorescence measurement was performed by using the EnVision plate reader (PerkinElmer). The test compounds and the control drugs (δ: SNC80, μ: DAMGO, K: U-69593) were evaluated in a concentration range of 10^-12 to 10^-5 M, a dose-response curve of each test compound was obtained from the fluorescence values at 665 nm, and EC50 value and the Emax value were calculated. The Emax value was calculated as a ratio of the maximum reaction of the test compound to the maximum reaction of each control drug, which is taken as 100%.

Another data set has as its target T2, human opioid κ receptor (Homo sapiens, UniProt P41145).
T2 construct: host or cells: CHO cells
The data set can be described thus: Opioid receptor function test (Lance Ultra cAMP Kit), κ receptor. Type of data set: cell-based. The method, then: as §1, §2, §3

The next data set has as its target T3, hERG potassium channel (Homo sapiens, UniProt Q12809).
T3 construct: host or cells: CHO cells
Put plainly: hERG potassium channel inhibition test (automatic patch clamp). Type of data set: cell-based. Particulars: for hERG channel inhibitory effect: hERG-expressing CHO cells. As to the method:
Human Ether-a-Go-Go Related Gene (hERG) Potassium Channel Inhibition Test
The test was performed with Port-a-Patch automatic patch clump apparatus (Manion Technologies) using hERG channel-stably expressing CHO cells (purchased from Channelopathy Foundation). The membrane potential of the cells was maintained at −80 mV, then there were applied a depolarization pulse at +20 mV for 1.5 seconds, and a following test pulse at −50 mV for 1.5 seconds at a frequency of 1 time per 10 seconds, and the hERG current was confirmed as a tail current induced by the test pulse. The test compound was dissolved in an extracellular fluid (137 mM NaCl, 4 mM KCl, 1.8 mM CaCl2, 1 mM MgCl2, 10 mM D(+)-glucose, 10 mM HEPES, pH 7.4), and the solution was […] at room temperature for 5 minutes. The inhibition ratio was obtained from the ratio of the tail current value observed after the compound was applied based on the tail current value observed before the compound was applied, which was taken as 100%.
On the technique in general: Block of hERG is tested as a sign of cardiac risk.

The target of the next data set is T4, human opioid δ receptor (Homo sapiens, UniProt P41143).
T4 construct: host or cells: CHO cells
T4 sequence (P41143 whole entry): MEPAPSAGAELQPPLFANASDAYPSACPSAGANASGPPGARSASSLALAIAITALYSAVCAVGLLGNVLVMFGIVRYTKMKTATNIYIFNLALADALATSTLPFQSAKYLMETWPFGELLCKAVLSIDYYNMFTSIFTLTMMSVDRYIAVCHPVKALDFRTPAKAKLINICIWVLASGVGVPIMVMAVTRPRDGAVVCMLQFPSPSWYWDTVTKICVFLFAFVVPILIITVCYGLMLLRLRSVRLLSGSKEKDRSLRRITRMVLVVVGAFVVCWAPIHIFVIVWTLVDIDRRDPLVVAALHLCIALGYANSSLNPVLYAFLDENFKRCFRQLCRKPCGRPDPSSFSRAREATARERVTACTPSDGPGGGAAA
The data set can be described thus: Opioid receptor function test (Lance Ultra cAMP Kit), δ receptor. It counts as cell-based. The note with it: for EC50: CHO cells expressing human δ receptor, cAMP, in the presence of forskolin, read-out: δ receptor EC° C.; for Emax: ratio to maximum reaction of control drug SNC80 (100%). As to the method: as §1, §2, §3

For the next data set, the system named is Wistar male rats. Put plainly: Rat elevated plus maze test. It counts as in vivo. As to the method: Rat Elevated Plus Maze Test
An anxiolytic effect of a compound provided by the present invention was examined using the rat elevated plus maze test.
For the test, 7 to 9 weeks old Wistar male rats were used. […] Each test substance was dissolved in a 4.5% aqueous solution of cyclodextrin, and orally administered 2 hours before the start of the test. The test data were automatically analyzed by using video image action analysis software (Smart3.0, PanLab S.L., PanLab), and wall-less running route staying time ratio (%) was calculated.

The next data set deals with C57BL/6N male mice. The data set can be described thus: Mouse elevated plus maze test. Particulars: 0.3 mg/kg subcutaneous administration, 30 minutes before test (FIG. 1). It counts as in vivo. The method, then: Mouse Elevated Plus Maze Test
For the test, 5 to 6 weeks old C57BL/6N male mice were used. On a plus maze apparatus consisting of a wall-less running route (open arm, width 6 cm, length 30 cm) and a running route with a wall (closed arm, width 6 cm, length 30 cm, height of wall 15 cm), and having a height of 40 cm, a mouse was put so as to be directed to the running route with a wall, and allowed to spontaneously enter into the plus maze. Each test substance was dissolved in saline or 0.005 N HCl in saline, and subcutaneously administered on the back 30 minutes before the start of the test. At the time of the start of the test, video recording with a video camera was started, the time at which the mouse entered into the plus maze is considered to be the start of the test, and exploratory behavior was recorded for 5 minutes. On the basis of the video image, staying time in the running routes were determined, and wall-less running route staying time ratio (%) was calculated.

A short description of data set [1]: Intracerebral migration test (concentration in cerebrospinal fluid and plasma). Type of data set: in vivo. Particulars: male, Wistar, sc, rat, 3 mg/kg s.c., 30 minutes after administration. As to the method:
Intracerebral Migration Test
A Wistar male 5-9 week old rat was used for the test. A test substance was dissolved in saline or a 4.5% cyclodextrin aqueous solution, and 1 mol/L hydrochloric acid (0.5 to 2.0 v/v %) was added thereto as necessary. The test substance was subcutaneously administered to the rat at a dose of 3 or 10 mg/kg. Thirty minutes later, cerebrospinal fluid was collected from the cisterna magna under isoflurane anesthesia. Subsequently, laparotomy was performed, and blood was collected from the vena cava. Thereafter, the blood was centrifuged at 1500×g at 4° C. for 15 minutes to obtain plasma. The animal was euthanized promptly by aortic cutting. The concentrations of the test substance in cerebrospinal fluid and plasma were measured using LC-MS/MS.

[2] abbreviates: read-out: μ receptor Emax (*reaction rate at the highest concentration, reference value).
The mark [3] stands for this setting: read-out: κ receptor Emax (*reaction rate at the highest concentration, reference value).
Where [4] appears, read: ratio to maximum reaction of control drug DAMGO (100%), read-out: μ receptor Emax.

T2 sequence (P41145 whole entry): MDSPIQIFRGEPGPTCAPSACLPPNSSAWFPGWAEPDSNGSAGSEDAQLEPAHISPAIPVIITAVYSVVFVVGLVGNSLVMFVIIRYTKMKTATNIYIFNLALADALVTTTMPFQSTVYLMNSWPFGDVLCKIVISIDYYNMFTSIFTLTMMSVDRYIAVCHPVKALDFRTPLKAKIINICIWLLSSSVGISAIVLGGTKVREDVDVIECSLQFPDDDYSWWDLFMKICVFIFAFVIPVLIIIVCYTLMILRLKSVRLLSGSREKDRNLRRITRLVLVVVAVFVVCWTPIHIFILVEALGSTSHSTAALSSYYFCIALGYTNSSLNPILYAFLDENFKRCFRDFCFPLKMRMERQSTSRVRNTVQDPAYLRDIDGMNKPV
T3 sequence (Q12809 whole entry): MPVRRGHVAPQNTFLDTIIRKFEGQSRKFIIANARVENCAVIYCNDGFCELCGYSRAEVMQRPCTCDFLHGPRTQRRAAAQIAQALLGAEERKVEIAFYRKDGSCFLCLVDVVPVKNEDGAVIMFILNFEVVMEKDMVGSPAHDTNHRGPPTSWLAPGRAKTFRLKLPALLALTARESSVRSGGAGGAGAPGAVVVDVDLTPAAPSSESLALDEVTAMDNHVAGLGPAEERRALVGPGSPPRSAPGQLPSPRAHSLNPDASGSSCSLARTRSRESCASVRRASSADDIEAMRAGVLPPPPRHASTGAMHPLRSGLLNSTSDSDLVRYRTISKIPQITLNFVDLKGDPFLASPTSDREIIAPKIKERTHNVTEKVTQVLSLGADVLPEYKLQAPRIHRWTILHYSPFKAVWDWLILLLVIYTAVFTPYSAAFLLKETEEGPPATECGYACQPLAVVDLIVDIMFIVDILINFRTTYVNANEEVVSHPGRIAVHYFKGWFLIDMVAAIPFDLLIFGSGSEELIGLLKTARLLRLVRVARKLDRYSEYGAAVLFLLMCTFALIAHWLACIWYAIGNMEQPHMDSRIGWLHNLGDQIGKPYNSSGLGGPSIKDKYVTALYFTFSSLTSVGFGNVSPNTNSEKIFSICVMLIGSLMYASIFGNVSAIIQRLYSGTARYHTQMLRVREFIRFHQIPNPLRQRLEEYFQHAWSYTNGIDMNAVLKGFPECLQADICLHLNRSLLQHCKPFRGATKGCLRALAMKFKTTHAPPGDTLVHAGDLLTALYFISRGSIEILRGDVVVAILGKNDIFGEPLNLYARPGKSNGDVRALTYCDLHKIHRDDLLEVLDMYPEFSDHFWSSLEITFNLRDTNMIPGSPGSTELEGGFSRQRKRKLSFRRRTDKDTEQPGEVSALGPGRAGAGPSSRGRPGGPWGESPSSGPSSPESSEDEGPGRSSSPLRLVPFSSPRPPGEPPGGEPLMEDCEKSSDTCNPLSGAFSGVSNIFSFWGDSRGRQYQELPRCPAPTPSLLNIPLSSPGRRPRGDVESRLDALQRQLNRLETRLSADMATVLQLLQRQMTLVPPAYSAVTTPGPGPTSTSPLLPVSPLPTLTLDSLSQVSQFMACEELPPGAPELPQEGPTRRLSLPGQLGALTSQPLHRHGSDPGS

In the case of `O=C([C@H]1CCCN1)N1C[C@H]2C[C@@]34CC[C@@H]1[C@@H]2[C@@]31CCN(CC2CC2)[C@@H]4Cc2ccc(O)cc21` [Example 2, (1S,3aR,5aS,6R,11bR,11cS)-3-(D-prolyl)-14-(cyclopropylmethyl)-10-hydroxy-2,3,3a,4,5,6,7,11c-octahydro-1H-6,11b-(epiminoethano)-1,5a-methanonaphtho[1,2-e]indole dihydrochloride], the values for the Emax at human opioid μ receptor (setting [2]), on human opioid κ receptor (setting [3]) and at human opioid δ receptor were 3.8%, 3.8% and 95%, respectively. Moreover, the “hERG channel inhibitory effect (in words)” value on hERG potassium channel is recorded as “only a weak inhibitory effect”. Also, the “hERG channel inhibitory effect” value on hERG potassium channel (concentration 10 μM) is under 50%. In addition, the EC50 on human opioid δ receptor was under 3 nM.

As for `O=C([C@H]1CCCCN1)N1C[C@H]2C[C@@]34CC[C@@H]1[C@@H]2[C@@]31CCN(CC2CC2)[C@@H]4Cc2ccc(O)cc21` [Example 4, ((1S,3aR,5aS,6R,11bR,11cS)-14-(cyclopropylmethyl)-10-hydroxy-1,2,3a,4,5,6,7,11c-octahydro-3H-6,11b-(epiminoethano)-1,5a-methanonaphtho[1,2-e]indol-3-yl) ((R)-piperidin-2-yl) methanone dihydrochloride], the Emax was determined as 0.87% on human opioid μ receptor (setting [2]), 5% on human opioid κ receptor (setting [3]) and 82% at human opioid δ receptor. Moreover, the “hERG channel inhibitory effect (in words)” value at hERG potassium channel was “only a weak inhibitory effect”. The “hERG channel inhibitory effect” value on hERG potassium channel (concentration 10 μM) was under 50%. Further, on human opioid δ receptor, the EC50 was under 3 nM.

`O=C([C@H]1CCCO1)N1C[C@H]2CC34CCC1C2C31CCNC4Cc2ccc(O)cc21` (stereo partly drawn) [Example 14, ((1S,3aR,5aS,6R,11bR,11cS)-10-hydroxy-1,2,3a,4,5,6,7,11c-octahydro-3H-6,11b-(epiinoetano)-1,5a-methanonaphtho[1,2-e]indol-3-yl) ((R)-tetrahydrofuran-2-yl) methanone]: on hERG potassium channel, the “hERG channel inhibitory effect (in words)” value is “only a weak inhibitory effect”. The “hERG channel inhibitory effect” value at hERG potassium channel (concentration 10 μM) is reported as under 50%.

For the compound `O=C([C@H]1CCCNC1)N1C[C@H]2C[C@@]34CC[C@@H]1[C@@H]2[C@@]31CCN(CC2CC2)[C@@H]4Cc2ccc(O)cc21` [Example 6, ((1S,3aR,5aS,6R,11bR,11cS)-14-(cyclopropylmethyl)-10-hydroxy-1,2,3a,4,5,6,7,11c-octahydro-3H-6,11b-(epiminoethano)-1,5a-methanonaphtho[1,2-e]indol-3-yl) ((S)-piperidin-3-yl) methanone dihydrochloride], the figures for the Emax on human opioid μ receptor (setting [2]), at human opioid κ receptor (read-out: κ receptor Emax) and on human opioid δ receptor were 5.5%, 11% and 74%, respectively. For the same compound, the EC50 on human opioid κ receptor is under 1 nM; at human opioid δ receptor, under 3 nM.

Turning to `CN1CCC[C@@H]1C(=O)N1C[C@H]2C[C@@]34CC[C@@H]1[C@@H]2[C@@]31CCN(CC2CC2)[C@@H]4Cc2ccc(O)cc21` [Example 9, (1S,3aR,5aS,6R,11bR,11cS)-14-(cyclopropylmethyl)-10-hydroxy-3-(methyl-D-prolyl)-2,3,3a,4,5,6,7,11c-octahydro-1H-6,11b-(epiminoethano)-1,5a-methanonaphtho[1,2-e]indol], the values for the Emax at human opioid μ receptor (setting [2]), at human opioid κ receptor (setting [3]) and at human opioid δ receptor were -0.6%, 3.7% and 64%, respectively. The EC50 on human opioid δ receptor was under 3 nM.

For `O=C1CC[C@H](C(=O)N2C[C@H]3C[C@@]45CC[C@@H]2[C@@H]3[C@@]42CCN(CC3CC3)[C@@H]5Cc3ccc(O)cc32)O1` [Example 13, (R)-5-((1S,3aR,5aS,6R,11bR,11cS)-14-(cyclopropylmethyl)-10-hydroxy-2,3,3a,4,5,6,7,11c-octahydro-1H-6,11b-(epiminoethano)-1,5a-methanonaphtho[1,2-e]indole-3-carbonyl) dihydrofuran-2(3H)-one], the EC50 at human opioid μ receptor is over 1 nM; at human opioid κ receptor (CHO cells expressing human κ receptor, cAMP, N.C. = maximum reaction not reached at highest concentration (10 μM), not calculated, read-out: κ receptor EC° C.), under 1 nM; at human opioid δ receptor, under 3 nM. Further, the Emax at human opioid μ receptor (setting [4]) is 35%; at human opioid κ receptor (ratio to maximum reaction of control drug U-69593 (100%), read-out: κ receptor Emax), 13%; at human opioid δ receptor, 70%. The “hERG channel inhibitory effect” value at hERG potassium channel (concentration 1 μM) is under 50%.

As to `O=C([C@H]1CCCO1)N1C[C@H]2CC34CCC1C2C31CCN(CC2CC2)C4Cc2ccc(O)cc21` (stereo partly drawn) [Example 12, ((1S,3aR,5aS,6R,11bR,11cS)-14-(cyclopropylmethyl)-10-hydroxy-1,2,3a,4,5,6,7,11c-octahydro-3H-6,11b-(epiinoetano)-1,5a-methanonaphtho[1,2-e]indol-3-yl) ((R)-tetrahydrofuran-2-yl) methanone], the “minimum effective medicinal dose” value with Wistar male rats (rat elevated plus maze test, p. o.) is recorded as 0.3 mg/kg. Besides, the “wall-less traveling path residence time rate” value in the data set on Wistar male rats (rat, 0.3 mg/kg oral administration, 2 hours before test (FIG. 2)) was “significantly increases”; in the data set on C57BL/6N male mice it was “significantly increases”. For the same compound, the EC50 at human opioid μ receptor was over 1 nM; at human opioid δ receptor, under 1 nM. The Emax on human opioid μ receptor (setting [4]) was 12%; at human opioid κ receptor (setting [3]) it was 8.7%; on human opioid δ receptor, 85%. The “hERG channel inhibitory effect” value on hERG potassium channel (concentration 1 μM) is given as under 50%. The concentration at 30 min is 42 nM in data set [1] (cerebrospinal fluid, read-out: Concentration in cerebrospinal fluid) and 580 nM in data set [1] (plasma, read-out: Concentration in plasma).
